The results in this text go back to PubChem BioAssay AID2060598 (Global Health Medicines R&D, GSK, 2025).

The experiment concerns the target P. falciparum 3D7A growth, LDH activity. The experiment can be described thus: asexual P. falciparum growth inhibition, dose response, strain 3D7A, LDH readout (AID 2060598).

What is called IC50 is the concentration that inhibits the measured activity by half.

For the compound `N#Cc1cccc(NC(=O)CNc2ccccc2C(=O)NC2CC2)c1`, the IC50 by setting is: (restricted media, 72 h) 39.8 nM; (standard media with serum) 398 nM.
On to `O=C(CCCc1c[nH]c2ccccc12)N1CCN(c2ccc(N3CCOCC3)nn2)CC1`, for which the IC50 is, setting by setting: (restricted media, 72 h) 398 nM; (standard media with serum) 5010 nM.
Turning to `CCN(CC)c1ccc(C(=O)COc2ccc3c(c2)CCNCC3)cc1`, the concentration for half-maximal inhibition (IC50) runs as follows: (restricted media, 72 h) 63.1 nM; (standard media with serum) 1000 nM.
For `COc1ccc(N2CCN(C(=O)c3csc(Nc4ccccc4S(C)(=O)=O)n3)CC2)nc1`, in that order: 79.4 nM and 1000 nM.
With `Cc1nn(C2CCS(=O)(=O)C2)c(C)c1CN(C)C(=O)CN1C(=O)NC2(CCCCC2C)C1=O` (stereo unspecified), the half-inhibitory concentration (IC50) was 63.1 nM (restricted media, 72 h) and 631 nM (standard media with serum).
On to `Cc1cccc(-c2nn(Cc3ccc(C(=O)NCCCO)cc3)c(=O)cc2N2CCCC(CO)C2)c1` (stereo unspecified), for which the IC50 runs as follows: (restricted media, 72 h) 794 nM; (standard media with serum) 7940 nM.
For `Cc1cc(Cl)ccc1OCC(=O)N1CCc2c(cnc(C)c2CNC(=O)c2ccc(=O)[nH]n2)C1`, in that order: 20 nM and 316 nM.
With `O=C(CCn1nnc2cc(S(=O)(=O)N3CCCC3)ccc21)N1CCN(c2ccccn2)CC1`, the IC50 was 126 nM (restricted media, 72 h) and 1260 nM (standard media with serum).
For `O=C(Nc1ccc(N2CCCC2)nc1)N1CCN(c2cnccn2)CC1`, in that order: 79.4 nM and 2000 nM.
The like results for `O=C1CSc2ccc(C(=O)Nc3ccc(-c4nnc5n4CCCCC5)cc3)cc2N1` were, in that order, 501 nM and 5010 nM.
For the compound `O=C(Nc1nnc(-c2ccccc2)s1)N1CCCN(c2ncccn2)CC1`, the IC50 is 20 nM (restricted media, 72 h) and 200 nM (standard media with serum).
The like results for `Cc1ccc2nc(CCNC(=O)CCS(=O)(=O)c3ccc4c(c3)CC(=O)N4C)[nH]c2c1` were, in that order, 31.6 nM and 501 nM.
As to `O=C(/C=C/c1n[nH]c2ccccc12)N1CCN(c2cnccn2)CC1`, the IC50 (restricted media, 72 h) is 158 nM and the IC50 (standard media with serum) stood at 2000 nM.
The like results for `O=C1CCCN1c1ccc(S(=O)(=O)N2CCN(S(=O)(=O)c3ccccc3)CC2)cc1` were, in that order, 501 nM and above 50100 nM.
As to `N#Cc1c(N)n[nH]c1CCCNC(=O)c1ccc(Cl)c(S(=O)(=O)N2CCCC2)c1`, the IC50 reads like this: (restricted media, 72 h) 50.1 nM; (standard media with serum) 631 nM.
The like results for `NC(=O)CC1CCN(C(=O)c2sc3sccc3c2Cl)CC1` were, in that order, 316 nM and 3160 nM.
For `CCCOc1cncc(S(=O)(=O)c2ccc3c(c2)CCN(C2CCC2)CC3)c1`, in that order: 316 nM and 3980 nM.
As for `COc1ccc(C(=O)N2CCN(c3ccc(-n4cccn4)nn3)CC2)cc1OC`, the IC50 was 126 nM (restricted media, 72 h) and 1580 nM (standard media with serum).
With `Cn1cccc1C1CCCN1CC(=O)Nc1ccc(S(=O)(=O)N2CCOCC2)cc1` (stereo unspecified), the IC50 runs as follows: (restricted media, 72 h) 794 nM; (standard media with serum) 10000 nM.
For `O=C(c1cc2ccccc2[nH]1)N1CCC2(CC(Nc3ccncn3)C2)C1` (stereo unspecified), in that order: 31.6 nM and 316 nM.
In the case of `O=C(NCCCN1CCc2ccccc21)c1ccc2c(=O)n(Cc3ccccn3)cnc2c1`, the IC50 was 63.1 nM (restricted media, 72 h) and 794 nM (standard media with serum).
For `O=C(/C=C/c1n[nH]c2ccccc12)Nc1ccc(C(=O)NCCN2CCOCC2)cc1`, in that order: 316 nM and 3160 nM.
For `COc1ccc2oc(C(=O)NC3CCC(Oc4ncccn4)CC3)cc2c1` (stereo unspecified), the IC50 (restricted media, 72 h) is 126 nM and the IC50 (standard media with serum) was determined as 1260 nM.
Turning to `CCN(C(=O)C=Cc1ccc(S(=O)(=O)N2CCc3ccccc32)cc1)C1CCS(=O)(=O)C1` (stereo unspecified), the IC50 (restricted media, 72 h) was 200 nM and the IC50 (standard media with serum) is 2510 nM.
The like results for `O=C(Nc1cccnc1)C1CCN(c2ccc(-c3ccco3)nn2)CC1` were, in that order, 794 nM and 7940 nM.
The like results for `CN(C(=O)C[C@@H]1CCN(C(=O)C2CC2)C1)c1ccc(-c2ccc(C#N)cc2)cc1` were, in that order, 251 nM and 3980 nM.
On to `COc1ccc(-c2ccc(CNC(=O)c3cc(C(=O)NC(C)C)ccc3Cl)cc2)cn1`, for which the IC50 is, setting by setting: (restricted media, 72 h) 63.1 nM; (standard media with serum) 631 nM.
`O=C(CCCc1ncc(-c2ccccc2)o1)N1CCOC2CCCC21` (stereo unspecified): the IC50 runs as follows: (restricted media, 72 h) 158 nM; (standard media with serum) 2000 nM.
Regarding `CC(C)Oc1ccc(-c2nnc(Oc3cccc4c3CCN(CCC(N)=O)CC4)s2)cc1C#N`, the IC50 (restricted media, 72 h) is 501 nM and the IC50 (standard media with serum) was 10000 nM.
For the compound `O=C(CCN=C1NS(=O)(=O)c2ccccc21)Nc1ccc(S(=O)(=O)N2CCCC2)cc1`, the IC50 reads like this: (restricted media, 72 h) 794 nM; (standard media with serum) 7940 nM.
The like results for `Cc1cc(-c2cnc(N3CCn4c(nnc4C4CC4)C3)nc2-c2ccncc2)on1` were, in that order, 100 nM and 1580 nM.
For `O=C(COc1ccc(Br)cc1F)N1CCN(c2cnccn2)CC1`, in that order: 251 nM and 2510 nM.
The like results for `COc1ccc(NC(=O)c2ccc3c(=O)n(Cc4ccccn4)cnc3c2)cc1N1CCN(C)CC1` were, in that order, 398 nM and 3980 nM.
